Reference: patent US8680076B2, “Methods of treatment, improvement and prevention using haloaryl substituted aminopurines” (Signal Pharmaceuticals, LLC, priority 2010, dated 2014)
Entries after “also recorded” stand apart in the source; their conditions may differ.

Key:
[1] = tested on: phosphorylation of the JNK target cJun in dermal SSc-fibroblasts; experiment: Western Blot analysis of c-Jun phosphorylation in TGF-β/PDGF-stimulated cultured dermal fibroblasts; assay type: cell-based, human; conditions: pre-incubation with compound
Description: To analyze whether the JNK pathway was activated by TGF-β and PDGF, Western Blot analysis for c-Jun in cultured dermal fibroblasts was performed.
After rinsing twice with PBS, the dermal fibroblasts were trypsinized and lysed with Laemmli Buffer. Five μg of protein from each sample were separated by 10% SDS-PAGE and electrotransferred onto polyvinylidene difluoride (PVDF) membranes according to standard protocols (Distler J H, Jungel A, Kowal-Bielecka O, Michel B A, Gay R E, Sprott H, et al. Expression of interleukin-21 receptor in epidermis from patients with systemic sclerosis. Arthritis Rheum. 2005; 52(3):856-64). Immunoblots were incubated with monoclonal antibodies against c-Jun and phospho-c-Jun (Santa Cruz, Heidelberg, Germany) at a dilution of 1:200 overnight at 4° C. After incubation with horseradish peroxidase-conjugated rabbit anti-mouse antibodies (Dako, Hamburg, Germany) for 1 hour at a dilution of 1:2000, signals were detected with ECL Western Blotting Detection Reagents (Amersham Bioscience, Freiburg, Germany). For confirmation of equal loading of proteins, the amount of β-actin was determined using mouse anti-human β-actin antibodies (Sigma-Aldrich, Munich, Germany; dilution 1:10000).

[2] = tested on: dermal fibroblasts from SSc patients; experiment: Expression of extracellular matrix proteins in dermal fibroblasts from SSc patients (real-time PCR, SirCol); assay type: cell-based, human
Description: Using fibroblasts isolated from skin biopsies from human systemic sclerosis (SSc) patients, an in vitro study was performed to evaluate whether the selective JNK inhibitor Compound JNKi-1 affects the expression of key extracellular matrix proteins.
(§1) Dermal fibroblasts from two SSc patients were treated for 24 hours (hr) with Compound JNKi-1 at concentrations from 0.1 μM to 10 μM (0.5% DMSO/99.5% cell culture media). To study the effect of Compound JNKi-1 on growth factor-induced collagen expression, recombinant transforming growth factor beta (TGF-β) (final concentration of 10 ng/mL) or platelet-derived growth factor-BB (PDGF-BB) (final concentration of 40 ng/mL) were added to cells 2 hr after the addition of JNK-inhibitor Compound JNKi-1 for 24 hr. The expression of collagen proteins was analyzed by SirCol assay. The messenger ribonucleic acid (mRNA) levels of extracellular proteins were measured by real-time polymerase chain reaction (PCR). The β-actin mRNA was used as internal control for the measurement of Collagen 1a1 mRNA using PCR. Fibroblast proliferation assay was performed in the presence or absence of 1 μM Compound JNKi-1 for 24 hr with the (3-(4,5-Dimethylthiazol-2-yl)-2,5-diphenyltetrazolium bromide) (MTT) assay.
The isolation of fibroblasts from human SSc patients and culture conditions used in this study have been previously described (Akhmetshina A, Dees C, Pileckyte M, Maurer B, Axmann R, Jüngel A, et al., Dual inhibition of c-abl and PDGF receptor signaling by dasatinib and nilotinib for the treatment of dermal fibrosis, FASEB J. 2008; 22(7):2214-22). Fibroblast cultures were obtained from skin biopsies of SSc patients. […] Biopsies from SSc patients were taken from involved skin of the forearm. After enzymatic digestion of the skin biopsies with Dispase II, fibroblasts were cultured in DMEM/F-12 containing 10% heat inactivated fetal calf serum (FCS), 100 U/mL penicillin, 100 μg/mL streptomycin, 2 mM L-glutamine and 2.5 μg/mL amphotericin B (all Invitrogen, Karlsruhe, Germany). Fibroblasts from passages 4-8 were used for the experiments. Data are expressed as mean±standard error of the mean (SEM).

[3] = tested on: fibroblasts from SSc patients; experiment: MTT assay, SSc fibroblast viability; assay type: cell-based, human; conditions: 1 μM, 24-hr incubation
Description: as §1
The isolation of fibroblasts from human SSc patients and culture conditions used in this study have been previously described (Akhmetshina A, Dees C, Pileckyte M, Maurer B, Axmann R, Jüngel A, et al., Dual inhibition of c-abl and PDGF receptor signaling by dasatinib and nilotinib for the treatment of dermal fibrosis, FASEB J. 2008; 22(7):2214-22). […] Data are expressed as mean±standard error of the mean (SEM).

SKH-1 mice epidermis = experiment: UVB-induced apoptosis (TUNEL) in skin of SKH-1 mice; assay type: in vivo, mouse; conditions: 75 mg/kg PO BID for 5 days before UVB 0.5 J/cm^2, vs vehicle
Description: Ultraviolet B (UVB) light is known to induce breaks in DNA (nicks) that can trigger the process of apoptosis, and these nicks can be labeled and visualized with terminal deoxynucleotidyl transferase dUTP nick end labeling (TUNEL). TUNEL technology identifies DNA breaks by labeling free 3′-OH terminals with modified (fluorescing) nucleotides in an enzymatic reaction that makes the damaged apoptotic cells fluoresce. This study was one of a series of pharmacology studies designed to determine the effects of the JNK inhibitor, Compound JNKi-1, on UVB-induced apoptosis in the skin of mice.
Female SKH-1 mice (Charles River, n=17 total) were obtained at a body weight of 15 g to 20 g. Mice were housed in regular shoebox cages and allowed to become acclimated for a minimum of 1 week. Mice were fed Harlan Teklad (No. 7001) 4% mouse/rat diet and water ad libitum and were maintained on a 12-hour light/dark cycle. […]
A Leica microscope with a CoolSNAP digital camera was used to obtain 5 random 20× magnification fluorescent images from five sections of skin epidermis and the number of TUNEL-positive green cells was counted to determine the average number of cells per animal and group (n=5).
Statistical one-way analysis of variance (ANOVA) was performed followed by Bonferroni's multiple comparison test (Graph Pad Prism). The data were expressed as mean±standard error of the mean (SEM).

[4] = 1 μM, 24 hr, compared to mock-treated fibroblasts

O[C@H]1CC[C@H](Nc2ncc3nc(Nc4c(F)cc(F)cc4F)n([C@H]4CCOC4)c3n2)CC1 [JNKi-1, 4-((9-((3S)-tetrahydro-3-furanyl)-8-((2,4,6-trifluorophenyl)amino)-9H-purin-2-yl)amino)-trans-cyclohexanol]
stimulatory effect of PDGF on c-Jun phosphorylation [1]: completely prevented
stimulatory effects of TGF-β and PDGF on the phosphorylation of c-Jun [1]: reduced the stimulatory effects
expression of extracellular matrix proteins (in words) ([2]; 0.1 μM to 10 μM, 24 hr): reduced expression; also recorded: dose-dependently reduced
reduction of col 1a1 mRNA level [2, 4]: 71±11%
reduction of col 1a2 mRNA level [2, 4]: 61±13%
reduction of fibronectin-1 mRNA level [2, 4]: 55±14%
reduction of collagen protein in the supernatant ([2]; 1 μM, compared to control): 21±7%
concentration at which maximal effects were observed ([2]; tested 0.1 μM to 10 μM, 24 hr): 1 µM
cytotoxic effect / cell viability (MTT) [3]: does not exert its inhibitory effects indirectly by reducing cell viability; also recorded: no cytotoxic effect
number of TUNEL-positive cells in epidermis 24 hr post UV exposure (SKH-1 mice epidermis): can inhibit apoptotic cell death; also recorded: significantly (p<0.01) decreased
